According to patent US10774052B2, “Heteroaryl compounds and uses thereof” (Celgene CAR LLC, priority 2013, dated 2020):

tested on: pFGFR4 in Huh7 cells; assay: FGFR4 signaling, pFGFR4 (Huh); MSD (Method B); type: cell-based; conditions: Homo sapiens, Huh-7, read-out: Signaling EC50 (nM) pFGFR4 (Huh)

Structure (SMILES) | EC50 [nM]
C=CC(=O)N[C@H]1CCCC[C@H]1Nc1ncc2c(n1)N(C)C(=O)N(c1c(Cl)c(OC)cc(OC)c1Cl)C2 [Compound I-95] | 101 to 500
C=CC(=O)N[C@H]1CCCC[C@H]1Nc1ncc2cc(-c3c(Cl)c(OC)cc(OC)c3Cl)c(=O)n(C)c2n1 [Compound I-223] | < 100
C=CC(=O)Nc1ccccc1Nc1ncc2c(n1)N(C1CCNCC1)C(=O)N(c1cc(OC)cc(OC)c1)C2 [Compound I-81] | > 1000
C=CC(=O)NC1CCCCC1Nc1ncc2c(n1)N(C)C(=O)N(c1c(Cl)c(OC)cc(OC)c1Cl)C2 (racemic) [Compound I-19] | 101 to 500
C=CC(=O)Nc1ccccc1Nc1ncc2c(n1)N(C1CCN(CC)CC1)C(=O)N(c1cc(OC)cc(OC)c1)C2 [Compound I-80] | > 1000
C=CC(=O)N[C@H]1CCCC[C@H]1Nc1ncc2c(n1)N(Cc1cscn1)C(=O)N(c1c(Cl)c(OC)cc(OC)c1Cl)C2 [Compound I-114] | 101 to 500
C=CC(=O)Nc1cc(N2CCN(C(=O)CCCC(=O)NCCCOCCOCCOCCCNC(=O)CCCC[C@@H]3SC[C@@H]4NC(=O)N[C@@H]43)CC2)ccc1Nc1ncc2c(n1)N(C)C(=O)N(c1c(Cl)c(OC)cc(OC)c1Cl)C2 [Compound I-127] | 101 to 500

same assay, conditions: Homo sapiens, Huh-7; Huh7 cells; read-out: Signaling EC50 (nM) pFGFR4 (Huh)

Structure (SMILES) | EC50 [nM]
C=CC(=O)Nc1ccccc1Nc1ncc2c(n1)N(CC(O)CO)C(=O)N(c1cc(OC)cc(OC)c1)C2 (stereo not drawn) [Compound I-33] | > 1000
C=CC(=O)Nc1ccccc1Nc1ncc2c(n1)N(CC1CC1)C(=O)N(c1cc(OC)cc(OC)c1)C2 [Compound I-98] | < 100
COc1cc(OC)c(Cl)c(N2Cc3cnc(Nc4ccccc4)nc3N(C)C2=O)c1Cl [Compound I-238] | < 100
C=CC(=O)NC1CN(C(C)=O)CC1Nc1ncc2c(n1)N(C)C(=O)N(c1c(Cl)c(OC)cc(OC)c1Cl)C2 (racemic) [Compound I-139] | 101 to 500
C=CC(=O)N[C@@H]1COC[C@@H]1Nc1ncc2c(n1)N(C)C(=O)N(c1c(Cl)c(OC)cc(OC)c1Cl)C2 [Compound I-185] | > 1000
C=CC(=O)Nc1ccccc1Nc1ncc2c(n1)N(CC(F)F)C(=O)N(c1cc(OC)cc(OC)c1Cl)C2 [Compound I-104] | < 100
C=CC(=O)NC1CCCCC1Nc1ncc2c(n1)N(CC(F)F)C(=O)N(c1cc(OC)cc(OC)c1Cl)C2 (racemic) [Compound I-107] | > 1000
C=CC(=O)NC1COCC1Nc1ncc2c(n1)N(Cc1ccn(C)n1)C(=O)N(c1c(Cl)c(OC)cc(OC)c1Cl)C2 (stereo not drawn) [Compound I-215] | < 100
C=CC(=O)NC1CCCCC1Nc1ncc2c(n1)N(Cc1cccc(NC(=O)CC)c1)C(=O)N(c1c(Cl)c(OC)cc(OC)c1Cl)C2 (racemic) [Compound I-8] | 101 to 500
C=CC(=O)NC1COCC1Nc1ncc2c(n1)N(C)C(=O)N(c1c(Cl)c(OCC)cc(OCC)c1Cl)C2 (stereo not drawn) [Compound I-205] | 101 to 500
C=CC(=O)NC1COCC1Nc1ncc2c(n1)N(Cc1cnn(C)c1)C(=O)N(c1c(Cl)c(OC)cc(OC)c1Cl)C2 (stereo not drawn) [Compound I-213] | < 100
C=CC(=O)NC1COCC1Nc1ncc2c(n1)N(C)C(=O)N(c1ccc(OC)cc1)C2 (stereo not drawn) [Compound I-209] | > 1000
C=CC(=O)NC1COCC1Nc1ncc2c(n1)N(Cc1cscn1)C(=O)N(c1c(Cl)c(OC)cc(OC)c1Cl)C2 (stereo not drawn) [Compound I-210] | < 100
C=CC(=O)NC1COCC1Nc1ncc2c(n1)N(C)C(=O)N(c1c(Cl)c(OC)c(OC)c(OC)c1Cl)C2 (stereo not drawn) [Compound I-208] | > 1000
C=CC(=O)Nc1ccccc1Nc1ncc2cc(-c3c(Cl)c(OC)cc(OC)c3Cl)c(=O)n(C)c2n1 [Compound I-244] | < 100
C=CC(=O)NC1COCC1Nc1ncc2c(n1)N(C)C(=O)N(c1c(F)c(OC)cc(OC)c1F)C2 (stereo not drawn) [Compound I-198] | < 100
C=CC(=O)NC1COCC1Nc1ncc2c(n1)N(Cc1cn[nH]c1)C(=O)N(c1c(Cl)c(OC)cc(OC)c1Cl)C2 (stereo not drawn) [Compound I-214] | 101 to 500
C=CC(=O)NC1COCC1Nc1ncc2c(n1)N(C)C(=O)N(c1cc(OC)c(OC)c(OC)c1)C2 (stereo not drawn) [Compound I-207] | > 1000

Structure (SMILES) | EC50 [nM]
C=CC(=O)NC1CS(=O)(=O)CC1Nc1ncc2c(n1)N(C)C(=O)N(c1c(Cl)c(OC)cc(OC)c1Cl)C2 (stereo not drawn) [Compound I-200] | 101 to 500
C=CC(=O)N[C@H]1CCCC[C@H]1Nc1ncc2c(n1)N(C)C(=O)N(c1c(Cl)c(OCC)cc(OCC)c1Cl)C2 [Compound I-219] | 501 to 999
C=CC(=O)NC1COCC1Nc1ncc2c(n1)N(C)C(=O)N(c1c(F)c(OC)cc(OC)c1Cl)C2 (stereo not drawn) [Compound I-206] | < 100
C=CC(=O)N[C@H]1CCCC[C@H]1Nc1ncc2c(n1)N(C)C(=O)N(c1c(F)c(OC)cc(OC)c1Br)C2 [Compound I-228] | 101 to 500
C=CC(=O)NC1COCC1Nc1ncc2c(n1)N(CC)C(=O)N(c1c(Cl)c(OC)cc(OC)c1Cl)C2 (stereo not drawn) [Compound I-217] | < 100
C=CC(=O)NC1COCC1Nc1ncc2c(n1)N(C)C(=O)N(c1cc(C(=O)Nc3cccc(C(C)(C)C)c3)ccc1Cl)C2 (stereo not drawn) [Compound I-247] | < 100
C=CC(=O)Nc1cc(F)ccc1Nc1ncc2cc(-c3c(Cl)c(OC)cc(OC)c3Cl)c(=O)n(C)c2n1 [Compound I-245] | < 100
C=CC(=O)Nc1cc(C(F)(F)F)ccc1Nc1ncc2c(n1)N(Cc1ccccc1)C(=O)N(c1c(Cl)c(OC)cc(OC)c1Cl)C2 [Compound I-6] | 101 to 500
C=CC(=O)NC1COCC1Nc1ncc2c(n1)N(CC1CC1)C(=O)N(c1c(Cl)c(OC)cc(OC)c1Cl)C2 (stereo not drawn) [Compound I-212] | < 100
C=CC(=O)NC1COCC1Nc1ncc2c(n1)N(Cc1cc[nH]n1)C(=O)N(c1c(Cl)c(OC)cc(OC)c1Cl)C2 (stereo not drawn) [Compound I-216] | 101 to 500
C=CC(=O)Nc1cc(OC)ccc1Nc1ncc2cc(-c3c(Cl)c(OC)cc(OC)c3Cl)c(=O)n(C)c2n1 [Compound I-242] | < 100
C=CC(=O)N[C@H]1CCCC[C@H]1Nc1ncc2c(n1)N(C)C(=O)N(c1cc(OC)c(OC)c(OC)c1)C2 [Compound I-220] | > 1000
C=CC(=O)NC1COCC1Nc1ncc2c(n1)N(C)C(=O)N(c1cc(C(=O)Nc3cccc(C(C)(C)C#N)c3)ccc1Cl)C2 (stereo not drawn) [Compound I-246] | 101 to 500
C=CC(=O)NC1CN(c2ccn(C)n2)CC1Nc1ncc2c(n1)N(C)C(=O)N(c1c(Cl)c(OC)cc(OC)c1Cl)C2 (stereo not drawn) [Compound I-204] | < 100
C=CC(=O)N[C@H]1CCCC[C@H]1Nc1ncc2c(n1)N(C)C(=O)N(c1c(Cl)c(OC)c(OC)c(OC)c1Cl)C2 [Compound I-221] | > 1000
C=CC(=O)NC1CN(c2ccncn2)CC1Nc1ncc2c(n1)N(C)C(=O)N(c1c(Cl)c(OC)cc(OC)c1Cl)C2 (stereo not drawn) [Compound I-201] | 101 to 500
C=CC(=O)N(C)C1COCC1Nc1ncc2c(n1)N(C)C(=O)N(c1c(Cl)c(OC)cc(OC)c1Cl)C2 (stereo not drawn) [Compound I-218] | > 1000
C=CC(=O)Nc1cc(C)ccc1Nc1ncc2cc(-c3c(Cl)c(OC)cc(OC)c3Cl)c(=O)n(C)c2n1 [Compound I-243] | < 100

tested on: pFGFR4 in MDA-MB-453 cells; assay: FGFR4 signaling, pFGFR4 (MDA); Western blot (Method A), MSD (Method B), ELISA (Method C); type: cell-based; conditions: Homo sapiens, MDA-MB-453, MDA-MB-453 cells; Method B (MSD) for signaling EC50 determination
Description: The MDA-MB-453 protein concentrations were determined by a BCA Assay (Pierce, Rockford, Ill.). A sample of 50-100 μg of each lysate was separated by a 4-12% gradient (SDS-PAGE (Invitrogen)), transferred to a nitrocellulose membrane (Biorad, Hercules, Calif.), and probed with specific antibodies. Phospho-protein signals were quantitated using Odyssey Infrared Imaging (Li-Cor Biosciences).
To assess phospho-FGFR signaling, the blots were probed with anti-Phospho-FGFR (Y653/Y654) and total anti-FGFR antibodies. The phospho-FGFR signal was normalized to total FGFR expression for each sample.

Structure (SMILES) | EC50 [nM]
C=CC(=O)N[C@@H]1COC[C@@H]1Nc1ncc2c(n1)N(C)C(=O)N(c1c(Cl)c(OC)cc(OC)c1Cl)C2 [Compound I-185] | 101 to 500
C=CC(=O)NC1CCCCC1Nc1ncc2c(n1)N(CC(F)F)C(=O)N(c1cc(OC)cc(OC)c1Cl)C2 (racemic) [Compound I-107] | 501 to 999
COc1cc(OC)cc(N2Cc3cnc(Nc4ccccc4)nc3N(C)C2=O)c1 [Compound I-237] | 101 to 500
C=CC(=O)NC1CCCCC1Nc1ncc2c(n1)N(CC1CC1)C(=O)N(c1cc(OC)cc(OC)c1Cl)C2 (stereo not drawn) [Compound I-101] | 101 to 500
C=CC(=O)NC1CCCCC1Nc1ncc2c(n1)N(C1CCCN(C(=O)OC(C)(C)C)C1)C(=O)N(c1cc(OC)cc(OC)c1)C2 (racemic) [Compound I-45] | > 1000

same assay, conditions: Homo sapiens; MDA-MB-453 cells; Method B (MSD) for signaling EC50 determination

Structure (SMILES) | EC50 [nM]
C=CC(=O)Nc1ccccc1Nc1ncc2c(n1)N(CC(O)CO)C(=O)N(c1cc(OC)cc(OC)c1)C2 (stereo not drawn) [Compound I-33] | 101 to 500
C=CC(=O)Nc1ccccc1Nc1ncc2c(n1)N(CC1CC1)C(=O)N(c1cc(OC)cc(OC)c1)C2 [Compound I-98] | < 100
COc1cc(OC)c(Cl)c(N2Cc3cnc(Nc4ccccc4)nc3N(C)C2=O)c1Cl [Compound I-238] | < 100
C=CC(=O)NC1CN(C(C)=O)CC1Nc1ncc2c(n1)N(C)C(=O)N(c1c(Cl)c(OC)cc(OC)c1Cl)C2 (racemic) [Compound I-139] | 101 to 500
C=CC(=O)Nc1ccccc1Nc1ncc2c(n1)N(CC(F)F)C(=O)N(c1cc(OC)cc(OC)c1Cl)C2 [Compound I-104] | < 100
C=CC(=O)NC1CCCCC1Nc1ncc2c(n1)N(CC1CC1)C(=O)N(c1c(Cl)c(OC)cc(OC)c1Cl)C2 (racemic) [Compound I-129] | 101 to 500
C=CC(=O)N[C@H]1CCCC[C@H]1Nc1ncc2c(n1)N(Cc1cnn(C)c1)C(=O)N(c1c(Cl)c(OC)cc(OC)c1Cl)C2 [Compound I-148] | < 100
C=CC(=O)Nc1ccccc1Nc1ncc2c(n1)N(CC1CC1)C(=O)N(c1c(Cl)c(OC)cc(OC)c1Cl)C2 [Compound I-130] | < 100
C=CC(=O)Nc1ccccc1Nc1ncc2c(n1)N(Cc1cscn1)C(=O)N(c1c(Cl)c(OC)cc(OC)c1Cl)C2 [Compound I-86] | < 100
C=CC(=O)Nc1cc(-c2nnn(C)n2)ccc1Nc1ncc2c(n1)N(C)C(=O)N(c1c(Cl)c(OC)cc(OC)c1Cl)C2 [Compound I-145] | < 100
C=C(C)C(=O)Nc1ccccc1Nc1ncc2c(n1)N(C)C(=O)N(c1c(Cl)c(OC)cc(OC)c1Cl)C2 [Compound I-142] | 101 to 500
C=CC(=O)Nc1cc(N2CCCCC2)ccc1Nc1ncc2c(n1)N(C)C(=O)N(c1cc(OC)cc(OC)c1)C2 [Compound I-31] | 101 to 500
